Consider ten compounds from ChEMBL document CHEMBL5724914, “Linking interpersonal differences in gut microbiota composition and drug biotransformation activity” (2024).

The conditions of data set [1]: human gut metagenome, 24 h, 2 µM.
For data set [2] the following is noted: human gut metagenome, 24 h, 2 µM. This is another data set of the same source.
For data set [3] the following is noted: human gut metagenome, 24 h, 2 µM. This is another data set of the same source.
For data set [4] the following is noted: human gut metagenome, 24 h, 2 µM. This is another data set of the same source.
For data set [5] the following is noted: human gut metagenome, 24 h, 2 µM. The source holds these as a separate data set.
The conditions of data set [6]: human gut metagenome, 24 h, 2 µM. The source holds these as a separate data set.
For data set [7] the following is noted: human gut metagenome, 24 h, 2 µM. This is another data set of the same source.
Data set [8] can be described thus: The drug is tested on WLS-038 corresponding to human gut metagenome with ENA study accession number: PRJEB37062 and ENA sample accession number: ERS12561745 for biotransformation under anaerobic condition. The drug concentrations were measured over 9 timepoints collected between 0 and 24 hours of incubation by liquid-chromatography-coupled mass spectrometry (LC–MS). Conditions: 2 µM.

The conditions of data set [9]: human gut metagenome, 24 h, 2 µM. This is another data set of the same source.
The nature of data set [10]: The drug is tested on WLS-086 corresponding to human gut metagenome with ENA study accession number: PRJEB37062 and ENA sample accession number: ERS12561752 for biotransformation under anaerobic condition. The drug concentrations were measured over 9 timepoints collected between 0 and 24 hours of incubation by liquid-chromatography-coupled mass spectrometry (LC–MS). Conditions: 2 µM.

For data set [11] the following is noted: human gut metagenome, 24 h, 2 µM. The source holds these as a separate data set.
A short description of data set [12]: The drug is tested on WLS-027 corresponding to human gut metagenome with ENA study accession number: PRJEB37062 and ENA sample accession number: ERS12561744 for biotransformation under anaerobic condition. The drug concentrations were measured over 9 timepoints collected between 0 and 24 hours of incubation by liquid-chromatography-coupled mass spectrometry (LC–MS). The settings on record: 2 µM.

For data set [13] the following is noted: human gut metagenome, 24 h, 2 µM. The source holds these as a separate data set.

Structures are written as SMILES.
Note: call rule not given here.

In the case of `CN(C)CCc1c[nH]c2ccc(CS(=O)(=O)N3CCCC3)cc12` [ALMOTRIPTAN], the “Bacterial Biotransformation” value was “Compound metabolized” in [1]; “Compound metabolized” in data set [2]; “Compound NOT metabolized” in data set [3]; “Compound NOT metabolized” in data set [4]; “Compound NOT metabolized” in data set [5]; “Compound NOT metabolized” in [6]. Besides, the “Bacterial Biotransformation” value in [7] was “Compound metabolized”; in [8], “Compound NOT metabolized”; in data set [9] it was “Compound NOT metabolized”; in data set [10], “Compound metabolized”; in data set [11], “Compound NOT metabolized”; in data set [12] it was “Compound NOT metabolized”. Further, in [13], the “Bacterial Biotransformation” value is “Compound NOT metabolized”.

On to `CCCCC(=O)O[C@]1(C(=O)CO)[C@@H](C)C[C@H]2[C@@H]3CCC4=CC(=O)C=C[C@]4(C)[C@@]3(F)[C@@H](O)C[C@@]21C` [BETAMETHASONE VALERATE], for which the “Bacterial Biotransformation” value in [1] is “Compound metabolized”; in data set [2], “Compound metabolized”; in [3], “Compound NOT metabolized”; in data set [4], “Compound NOT metabolized”; in [5], “Compound NOT metabolized”; in data set [6] it was “Compound NOT metabolized”. Moreover, the “Bacterial Biotransformation” value in data set [7] is reported as “Compound NOT metabolized”; in [8], “Compound metabolized”; in [9], “Compound metabolized”; in [10], “Compound metabolized”; in [11] it was “Compound metabolized”; in data set [12], “Compound metabolized”. Moreover, in [13], the “Bacterial Biotransformation” value is on record as “Compound NOT metabolized”.

Consider `Cc1nc(Nc2ncc(C(=O)Nc3c(C)cccc3Cl)s2)cc(N2CCN(CCO)CC2)n1` [DASATINIB ANHYDROUS], for which the “Bacterial Biotransformation” value was “Compound metabolized” in data set [1]; “Compound metabolized” in data set [2]; “Compound NOT metabolized” in [3]; “Compound metabolized” in data set [4]; “Compound metabolized” in data set [5]; “Compound metabolized” in data set [6]. Also, the “Bacterial Biotransformation” value is “Compound metabolized” in data set [7]; “Compound metabolized” in data set [8]; “Compound metabolized” in data set [9]; “Compound metabolized” in data set [10]; “Compound NOT metabolized” in [11]; “Compound metabolized” in data set [12]. For the same compound, the “Bacterial Biotransformation” value in data set [13] is “Compound metabolized”.

As to `CNCC[C@H](Oc1cccc2ccccc12)c1cccs1` [DULOXETINE], the “Bacterial Biotransformation” value in [1] is given as “Compound metabolized”; in data set [2], “Compound metabolized”; in [3], “Compound NOT metabolized”; in [4] it was “Compound NOT metabolized”; in [5], “Compound NOT metabolized”; in data set [6], “Compound NOT metabolized”. Moreover, the “Bacterial Biotransformation” value in [7], in data set [8], in data set [9], in [10], in [11] and in data set [12] was “Compound NOT metabolized” in each case. In addition, the “Bacterial Biotransformation” value in [13] is “Compound NOT metabolized”.

In the case of `COCCCC/C(=N\OCCN)c1ccc(C(F)(F)F)cc1.O=C(O)/C=C\C(=O)O` [FLUVOXAMINE MALEATE], the “Bacterial Biotransformation” value in data set [1] is “Compound metabolized”; in data set [2] it was “Compound NOT metabolized”; in data set [3], “Compound NOT metabolized”; in data set [4], “Compound NOT metabolized”; in data set [5], “Compound metabolized”; in [6] it was “Compound metabolized”. For the same compound, the “Bacterial Biotransformation” value in data set [7], in [8], in data set [9], in data set [10], in [11] and in [12] was “Compound NOT metabolized” throughout. In addition, the “Bacterial Biotransformation” value in data set [13] was “Compound metabolized”.

Take `CC#CCn1c(N2CCC[C@@H](N)C2)nc2c1c(=O)n(Cc1nc(C)c3ccccc3n1)c(=O)n2C` [LINAGLIPTIN]: the “Bacterial Biotransformation” value in data set [1], in [2], in data set [3], in data set [4], in [5] and in data set [6] was “Compound NOT metabolized” in each case. The “Bacterial Biotransformation” value in data set [7], in data set [8], in [10], in data set [11] and in data set [13] was “Compound NOT metabolized” each time.

In the case of `CN1CCN(C2=Nc3ccccc3Oc3ccc(Cl)cc32)CC1.O=C(O)CCC(=O)O` [LOXAPINE SUCCINATE], the “Bacterial Biotransformation” value in data set [1], in [2], in data set [3], in data set [4], in data set [5] and in data set [6] was “Compound NOT metabolized” in each case. Further, the “Bacterial Biotransformation” value in data set [7], in data set [8], in [9], in [10], in data set [11] and in data set [12] was “Compound NOT metabolized” in each case. For the same compound, in [13], the “Bacterial Biotransformation” value was “Compound NOT metabolized”.

`CCOC(=O)C1=C(C)NC(C)=C(C(=O)OC)C1c1cccc([N+](=O)[O-])c1` (stereo not drawn) [NITRENDIPINE]: the “Bacterial Biotransformation” value in [1], in [2], in data set [3], in data set [4], in data set [5] and in [6] was “Compound metabolized” each time. In addition, the “Bacterial Biotransformation” value in data set [7], in [8], in data set [9], in data set [10], in [11] and in data set [12] was “Compound metabolized” in each case. In addition, the “Bacterial Biotransformation” value in [13] is “Compound metabolized”.

Turning to `N#Cc1ccc2c(c1)N(CCCN1CCC(O)CC1)c1ccccc1S2` [PERICIAZINE], the “Bacterial Biotransformation” value in data set [1] was “Compound metabolized”; in [2] it was “Compound metabolized”; in [3] it was “Compound NOT metabolized”; in data set [4] it was “Compound metabolized”; in data set [5], “Compound NOT metabolized”; in data set [6], “Compound metabolized”. The “Bacterial Biotransformation” value is “Compound metabolized” in [7]; “Compound metabolized” in data set [8]; “Compound NOT metabolized” in [9]; “Compound metabolized” in data set [10]; “Compound NOT metabolized” in data set [11]; “Compound metabolized” in [12]. For the same compound, the “Bacterial Biotransformation” value in data set [13] is “Compound NOT metabolized”.

For `O=C([O-])C[C@H](O)C[C@H](O)/C=C/c1c(C2CC2)nc2ccccc2c1-c1ccc(F)cc1.O=C([O-])C[C@H](O)C[C@H](O)/C=C/c1c(C2CC2)nc2ccccc2c1-c1ccc(F)cc1.[Ca+2]` [PITAVASTATIN CALCIUM], the “Bacterial Biotransformation” value was “Compound NOT metabolized” in [1]; “Compound metabolized” in [2]; “Compound NOT metabolized” in data set [3]; “Compound metabolized” in data set [4]; “Compound NOT metabolized” in [5]; “Compound metabolized” in [6]. The “Bacterial Biotransformation” value in [7] is reported as “Compound metabolized”; in data set [8] it was “Compound metabolized”; in data set [9] it was “Compound metabolized”; in data set [10] it was “Compound metabolized”; in [11], “Compound NOT metabolized”; in [12] it was “Compound metabolized”. Besides, the “Bacterial Biotransformation” value in [13] is listed as “Compound NOT metabolized”.
